Reference: patent US7026510B2, “Quaternary ammonium salts of omega-aminoalkylamides of r-2-aryl-propionic acids and pharmaceutical compositions containing them” (Dompé S.p.A., priority 2001, dated 2006)

Test system: C5a-induced chemotaxis of PMN
Test: Inhibition of C5a-induced chemotaxis of human PMNs (microchamber)
Assay type: cell-based
Settings: compound C = 10^−6 M, C5a 10^−9 M, 60 min at 37° C.
Description: The compounds of the invention of formula (I) were evaluated in vitro for their ability to inhibit chemotaxis of polymorphonucleate leukocytes (hereinafter referred to as PMNs) and monocytes induced by the fractions of the complement C5a and C5a-desArg. For this purpose, to isolate the PMNs from heparinized human blood, taken from healthy adult volunteers, mononucleates were removed by means of sedimentation on dextran (according to the procedure disclosed by W. J. Ming et al., J. Immunol., 138, 1469, 1987) and red blood cells by a hypotonic solution. The cell vitality was calculated by exclusion with Trypan blue, whilst the ratio of the circulating polymorphonucleates was estimated on the cytocentrifugate after staining with Diff Quick.
Human recombinant fractions C5a and C5a-desArg (Sigma) were used as stimulating agents in the chemotaxis experiments, giving practically identical results.
The lyophilized C5a was dissolved in a volume of HBSS containing 0.2% bovin serum albumin BSA so thus to obtain a stock solution having a concentration of 10^−5 M to be diluted in HBSS to a concentration of 10^−9 M, for the chemotaxis assays.
In the chemotaxis experiments, the PMNs were incubated with the compounds of the invention of formula (I) for 15′ at 37° C. in an atmosphere containing 5% CO2.
The chemotactic activity of the C5a was evaluated on human circulating polymorphonucleates (PMNs) resuspended in HBSS at a concentration of 1.5×10^6 PMNs per mL.
During the chemotaxis assay (according to W. Falket et al., J. Immunol. Methods, 33, 239, 1980) PVP-free filters with a porosity of 5 μm and microchambers suitable for replication were used.
The compounds of the invention in formula (I) were evaluated at a concentration ranging between 10^−6 and 10^−10 M; for this purpose they were added, at the same concentration, both to the lower pores and the upper pores of the microchamber. The wells in the lower part contain the solution of C5a or the simple carrier, those in the upper part contain the suspension of PMNs.
Inhibition of C5a-induced chemotactic activity by the individual compounds of the invention of formula (I) was evaluated by incubating the microchamber for the chemotaxis for 60 min at 37° C. in an atmosphere containing 5% CO2.
By way of example, the inhibition data of the chemotaxis of PMN (C=10^−6 M) of some representative compounds of the invention are reported in the following table: […]

Row | Compound | % INHIBITION (C = 10^−6 M) [%] | inhibition at 1 µM (Homo sapiens, 1 h) [%]
1 | R(−)-2-[(4′-isobutylphenyl)-propionylamino]-1,1-dimethylpiperidinium iodide | 18 ± 9 | 
2 | CC(C)Cc1ccc([C@@H](C)C(=O)NCCC[N+]2(C)CCCCC2)cc1.[I-] [R(−)-{3-[2-(4′-isobutylphenyl)-propionylamino]-propyl}-1-methyl-piperidinium iodide] | 24 ± 4 | 
3 | CC(C)Cc1ccc([C@@H](C)C(=O)NCCC[N+](C)(C)C)cc1.[I-] [R(−)-{3-[2-(4′-isobutylphenyl)-propionylamino]-propyl}-trimetilammonium iodide] | 53 ± 6 | 
4 | CC(C)Cc1ccc([C@@H](C)C(=O)NCCC[N+](C)(C)Cc2ccccc2)cc1.[I-] [R(−)-{3-[2-(4′-isobutylphenyl)-propionylamino]-propyl}-(N-benzyl)-N,N-dimethylammonium iodide] | 22 ± 4 | 
5 | C[C@@H](C(=O)NCCC[N+](C)(C)C)c1ccccc1Nc1c(Cl)cccc1Cl [(R)-{3-{2-[2-(2,6-dichlorophenylamino)-phenyl]-propionylamino}-propyl)-trimethylammonium iodide] |  | 62 ± 3
6 | CC(C)Cc1ccc([C@@H](C)C(=O)NCCC[N+](C)(C)CC2CCCCC2)cc1.CS(=O)(=O)[O-] [R(−)-{3-[2-(4′-isobutylphenyl)-propionylamino]-propyl}-N-cyclohexylmethyl-N,N-dimethyl-ammonium metaneosulfonate] | 57 ± 4 | 
